Key:
[1] = target: ABAP1 (Hordeum vulgare, UniProt Q9LLX3); assay: ABA binding assay with purified recombinant ABAP1; design: species or system barley
Method: Other additions or changes to the incubation system are discussed in the figure legends. All binding assays were carried out at a final volume of 150 μL at 4° C. for 1 hour. The mixture was then rapidly filtered through a nitrocellulose membrane, washed with 5 mL, of cold 0.5× binding buffer by rapid filtration, dried in air and counted in a scintillation counter (Wallac 1414 WinSpectral v1.40). […] The DCC binding mixture was maintained for 15 minutes on ice before centrifugation to precipitate DCC. The resulted supernatant was then counted in a scintillation counter to determine the binding activity. […] Heat denatured ABAP1 protein was used to determine the protein nature of the ABAP1 and BSA was used as a control. All binding studies were carried out using three different protein purifications with triplicate assays for each purification. […] Binding was represented as the number of moles of ^3H^+-ABA per mole of ABAP1 protein.

[2] = target: T1, FCA protein (Arabidopsis thaliana, UniProt O04425); assay: ABA binding assay with purified recombinant FCA; design: other: in the absence of FY, at 15 min; other: in the absence of FY, at 45 min; fused on or other part: GST fused on; details: in the absence of FY
T1 sequence (O04425 1-747 isoform O04425-1): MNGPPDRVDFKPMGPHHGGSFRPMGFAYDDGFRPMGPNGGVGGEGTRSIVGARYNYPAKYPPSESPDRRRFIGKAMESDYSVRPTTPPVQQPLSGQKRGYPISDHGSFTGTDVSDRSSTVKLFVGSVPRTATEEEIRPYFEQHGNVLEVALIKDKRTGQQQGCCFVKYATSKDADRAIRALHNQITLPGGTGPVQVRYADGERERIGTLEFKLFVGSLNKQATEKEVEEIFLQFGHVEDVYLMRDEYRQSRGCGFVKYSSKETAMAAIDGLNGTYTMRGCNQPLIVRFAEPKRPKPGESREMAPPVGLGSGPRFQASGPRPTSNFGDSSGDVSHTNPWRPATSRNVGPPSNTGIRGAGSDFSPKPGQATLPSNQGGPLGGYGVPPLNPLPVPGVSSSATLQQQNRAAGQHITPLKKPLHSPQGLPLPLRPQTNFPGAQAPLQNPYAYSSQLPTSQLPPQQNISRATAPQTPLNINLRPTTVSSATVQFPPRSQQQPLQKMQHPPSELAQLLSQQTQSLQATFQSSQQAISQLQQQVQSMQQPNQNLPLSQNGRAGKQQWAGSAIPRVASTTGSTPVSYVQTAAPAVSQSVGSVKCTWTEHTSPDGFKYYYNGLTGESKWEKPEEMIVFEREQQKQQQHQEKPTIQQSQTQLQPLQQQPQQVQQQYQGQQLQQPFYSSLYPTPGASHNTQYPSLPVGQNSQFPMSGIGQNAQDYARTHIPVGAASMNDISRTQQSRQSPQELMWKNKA
Method: (§1) […] The mixture was then rapidly filtered through a nitrocellulose membrane, washed with 0.5× binding buffer, air dried and counted in a scintillation counter (Wallac 1414 WinSpectral v1.40). Heat denatured FCA protein was used to used determine the protein nature of the FCA and BSA was used as a control. All binding studies were carried out using three different GST affinity chromatography protein purifications with triplicate assays for each purification. […] Specific binding was calculated by taking the difference for assays with only ^3H^+-ABA (total binding) and assays that also contained 5 μM (±)-ABA added at the same time as ^3H^+-ABA (non-specific binding). Binding was represented as the number of moles of ^3H^+-ABA per mole of FCA protein.

[3] = target: T1, FCA protein; assay: ABA binding assay with purified recombinant FCA; design: Kd; other: analog added in higher concentrations than 3H+-ABA (20-5000 nM); other: Scatchard analysis, r^2=0.88; other: in presence of 5 μM unlabelled (+)-ABA; pH range of maximum; fused on or other part: GST fused on for purification
Method: as §1

Sequence of ABAP1 (Q9LLX3 entry or part of it): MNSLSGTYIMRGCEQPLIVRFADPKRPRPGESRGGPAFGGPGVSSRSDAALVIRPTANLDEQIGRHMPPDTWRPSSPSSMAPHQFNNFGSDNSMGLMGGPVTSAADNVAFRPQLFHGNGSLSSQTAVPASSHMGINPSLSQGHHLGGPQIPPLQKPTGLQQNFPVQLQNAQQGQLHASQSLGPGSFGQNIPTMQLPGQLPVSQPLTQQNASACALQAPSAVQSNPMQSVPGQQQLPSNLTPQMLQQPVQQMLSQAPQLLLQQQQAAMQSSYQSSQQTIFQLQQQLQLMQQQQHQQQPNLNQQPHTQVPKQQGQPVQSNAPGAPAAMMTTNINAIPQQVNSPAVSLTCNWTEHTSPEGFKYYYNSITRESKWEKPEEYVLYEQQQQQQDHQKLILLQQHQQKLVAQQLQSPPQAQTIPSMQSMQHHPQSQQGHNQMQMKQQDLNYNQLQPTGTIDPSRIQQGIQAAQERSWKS

## abscisic acid [ABA]
[1]; 3H+-ABA binding at varying pH
  pH of maximum binding activity: 7.3
[1]; Scatchard plot analysis, r^2=0.94
  maximum specific binding: 0.8 mol ABA mold protein
[1]; Scatchard plot, r^2=0.94
  ratio of ABA bound to ABAP1: approximately 0.8 mol ABA mol^−1 protein
[1]; additional time after reaching maximum binding
  time maximum binding activity remained stable: ≥ 3 h
[1]; association kinetics, total binding
  maximum binding activity (total binding): ≈ 0.7 mol ABA mol^−1 protein
[1]; in presence of 5 μM unlabelled ABA
  non-specific binding: less than 10 % of the total binding
[2]; at 15 min
  saturation of FCA 3H-(+)-ABA binding activity: approximately 50%
[2]; at 45 min
  saturation of FCA 3H-(+)-ABA binding activity: approximately 95%
[3]; 50 nM 3H-(+)-ABA, FIG. 16
  binding corresponding to 100% binding activity: approximately 0.52 mol ABA mol^−1 protein
[3]; Scatchard analysis, r^2=0.88
  maximum binding: 0.72 mol mol^−1 protein
[3]; Scatchard plot
  ratio of ABA bound to FCA: approximately 0.72 mol ABA mol^−1 protein
[3]; in presence of 5 μM unlabelled (+)-ABA
  non-specific binding: less than 11 % of the total binding

Source: US20080235828A1 (University of Manitoba, priority 2004, published 2008)
